Source: PubChem BioAssay AID1963839 (Molecular Pharmacology Branch, DTP, NCI, 2024)

System: 817829-284-R-J1-PDC complex spheroid viability
Assay: Anticancer human tumor 817829-284-R-J1-PDC patient-derived colon adenocarcinoma cell line growth inhibition [POLQ]
Details: for IC50: curve of first compound; for viability, T/C: stronger effect = lower value
How it was run: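 Complex spheroid viability model combining PDC tumour cells with endothelial (HUVEC) and MSC stromal cells. Novobiocin, ART-558 or RP6685 were tested singly and in combination with standard and investigational anticancer drugs. Each was titrated in half-log steps from near clinical Cmax, or from 10 microM where Cmax was unknown.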

[1] = second compound 0.0316 µM, first compound 0.0316 µM
[2] = second compound 0.0316 µM, first compound 0.1 µM
[3] = second compound 0.0316 µM, first compound 0.316 µM
[4] = second compound 0.0316 µM, first compound 1 µM
[5] = second compound 0.0316 µM, first compound 3.16 µM
[6] = second compound 0.0316 µM, first compound 10 µM
[7] = second compound 0.1 µM, first compound 0.0316 µM
[8] = second compound 0.1 µM, first compound 0.1 µM
[9] = second compound 0.1 µM, first compound 0.316 µM
[10] = second compound 0.1 µM, first compound 1 µM
[11] = second compound 0.1 µM, first compound 3.16 µM
[12] = second compound 0.1 µM, first compound 10 µM
[13] = second compound 0.316 µM, first compound 0.0316 µM
[14] = second compound 0.316 µM, first compound 0.1 µM
[15] = second compound 0.316 µM, first compound 0.316 µM
[16] = second compound 0.316 µM, first compound 1 µM
[17] = second compound 0.316 µM, first compound 3.16 µM
[18] = second compound 0.316 µM, first compound 10 µM
[19] = second compound 1 µM, first compound 0.0316 µM
[20] = second compound 1 µM, first compound 0.1 µM
[21] = second compound 1 µM, first compound 0.316 µM
[22] = second compound 1 µM, first compound 1 µM
[23] = second compound 1 µM, first compound 3.16 µM
[24] = second compound 1 µM, first compound 10 µM
[25] = second compound 3.16 µM, first compound 0.0316 µM
[26] = second compound 3.16 µM, first compound 0.1 µM
[27] = second compound 3.16 µM, first compound 0.316 µM
[28] = second compound 3.16 µM, first compound 1 µM
[29] = second compound 3.16 µM, first compound 3.16 µM
[30] = second compound 3.16 µM, first compound 10 µM
[31] = second compound 10 µM, first compound 0.0316 µM
[32] = second compound 10 µM, first compound 0.1 µM
[33] = second compound 10 µM, first compound 0.316 µM
[34] = second compound 10 µM, first compound 1 µM
[35] = second compound 10 µM, first compound 3.16 µM
[36] = second compound 10 µM, first compound 10 µM
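Also: spheroids exposed to compounds for 7 days.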
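For viability, T/C in this document: 100% = DMSO vehicle-treated spheroids.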

For `CNCc1ccc(-c2[nH]c3cc(F)cc4c3c2CCNC4=O)cc1` + COC1C(OC(N)=O)C(O)C(Oc2ccc3c(O)c(NC(=O)c4ccc(O)c(CC=C(C)C)c4)c(=O)oc3c2C)OC1(C)C, the IC50 (second compound 0.0316 µM) was 6.63 µM, the IC50 (second compound 0.1 µM) was > 10 µM and the IC50 (second compound 0.316 µM) was > 10 µM. It also gave an IC50 (second compound 1 µM) of 5.24 µM, an IC50 (second compound 3.16 µM) of 5.17 µM and an IC50 (second compound 10 µM) of 5.38 µM. The viability, T/C [1] was 95.8%, the viability, T/C [2] was 94% and the viability, T/C [3] was 83%. It also gave a viability, T/C [4] of 76.8%, a viability, T/C [5] of 68.8% and a viability, T/C [6] of 40.2%. The viability, T/C [7] was 73.3%, the viability, T/C [8] was 102% and the viability, T/C [9] was 86%. It also gave a viability, T/C [10] of 55.2%, a viability, T/C [11] of 72.8% and a viability, T/C [12] of 53.3%. For the same compound, the viability, T/C [13] was 99.1%, the viability, T/C [14] was 108% and the viability, T/C [15] was 83.7%. It also gave a viability, T/C [16] of 80.4%, a viability, T/C [17] of 74.3% and a viability, T/C [18] of 51.5%. It also gave a viability, T/C [19] of 125%, a viability, T/C [20] of 91.6% and a viability, T/C [21] of 107%. The viability, T/C [22] was 81.8%, the viability, T/C [23] was 80.3% and the viability, T/C [24] was 22%. For the same compound, the viability, T/C [25] was 119%, the viability, T/C [26] was 109% and the viability, T/C [27] was 98.9%. It also gave a viability, T/C [28] of 103%, a viability, T/C [29] of 58.5% and a viability, T/C [30] of 38.2%. It also gave a viability, T/C [31] of 98%, a viability, T/C [32] of 99% and a viability, T/C [33] of 75.1%. The viability, T/C [34] was 90.1%, the viability, T/C [35] was 73.9% and the viability, T/C [36] was 23.1%.

For `Cn1ncnc1[C@H]1c2n[nH]c(=O)c3cc(F)cc(c23)N[C@@H]1c1ccc(F)cc1` + COC1C(OC(N)=O)C(O)C(Oc2ccc3c(O)c(NC(=O)c4ccc(O)c(CC=C(C)C)c4)c(=O)oc3c2C)OC1(C)C, the IC50 (second compound 0.0316 µM) was 0.031 µM, the IC50 (second compound 0.1 µM) was 0.00486 µM and the IC50 (second compound 0.316 µM) was 0.0198 µM. For the same compound, the IC50 (second compound 1 µM) was 0.024 µM, the IC50 (second compound 3.16 µM) was 0.0102 µM and the IC50 (second compound 10 µM) was 0.031 µM. It also gave a viability, T/C (second compound 0.0316 µM, first compound 0.000316 µM) of 107%, a viability, T/C (second compound 0.0316 µM, first compound 0.001 µM) of 63.2% and a viability, T/C (second compound 0.0316 µM, first compound 0.00316 µM) of 72.3%. The viability, T/C (second compound 0.0316 µM, first compound 0.01 µM) was 62.6%, the viability, T/C [1] was 55.5% and the viability, T/C [2] was 36.5%. It also gave a viability, T/C (second compound 0.1 µM, first compound 0.000316 µM) of 103%, a viability, T/C (second compound 0.1 µM, first compound 0.001 µM) of 109% and a viability, T/C (second compound 0.1 µM, first compound 0.00316 µM) of 52.9%. For the same compound, the viability, T/C (second compound 0.1 µM, first compound 0.01 µM) was 60.4%, the viability, T/C [7] was 39.9% and the viability, T/C [8] was 35.4%. For the same compound, the viability, T/C (second compound 0.316 µM, first compound 0.000316 µM) was 104%, the viability, T/C (second compound 0.316 µM, first compound 0.001 µM) was 94.9% and the viability, T/C (second compound 0.316 µM, first compound 0.00316 µM) was 74.4%. For the same compound, the viability, T/C (second compound 0.316 µM, first compound 0.01 µM) was 65.3%, the viability, T/C [13] was 38% and the viability, T/C [14] was 36.2%. For the same compound, the viability, T/C (second compound 1 µM, first compound 0.000316 µM) was 94.9%, the viability, T/C (second compound 1 µM, first compound 0.001 µM) was 107% and the viability, T/C (second compound 1 µM, first compound 0.00316 µM) was 85.4%. For the same compound, the viability, T/C (second compound 1 µM, first compound 0.01 µM) was 65%, the viability, T/C [19] was 47.8% and the viability, T/C [20] was 31.8%. The viability, T/C (second compound 3.16 µM, first compound 0.000316 µM) was 86.8%, the viability, T/C (second compound 3.16 µM, first compound 0.001 µM) was 102% and the viability, T/C (second compound 3.16 µM, first compound 0.00316 µM) was 97.7%. For the same compound, the viability, T/C (second compound 3.16 µM, first compound 0.01 µM) was 50.1%, the viability, T/C [25] was 49.9% and the viability, T/C [26] was 40.3%. For the same compound, the viability, T/C (second compound 10 µM, first compound 0.000316 µM) was 137%, the viability, T/C (second compound 10 µM, first compound 0.001 µM) was 124% and the viability, T/C (second compound 10 µM, first compound 0.00316 µM) was 69.8%. The viability, T/C (second compound 10 µM, first compound 0.01 µM) was 71.6%, the viability, T/C [31] was 67.2% and the viability, T/C [32] was 22.3%.

`O=C(c1cc(Cc2n[nH]c(=O)c3ccccc23)ccc1F)N1CCN(C(=O)C2CC2)CC1` + COC1C(OC(N)=O)C(O)C(Oc2ccc3c(O)c(NC(=O)c4ccc(O)c(CC=C(C)C)c4)c(=O)oc3c2C)OC1(C)C showed an IC50 (second compound 0.0316 µM) of 2.18 µM, an IC50 (second compound 0.1 µM) of 4.58 µM and an IC50 (second compound 0.316 µM) of 3.28 µM. It also gave an IC50 (second compound 1 µM) of 4.29 µM, an IC50 (second compound 3.16 µM) of 3.83 µM and an IC50 (second compound 10 µM) of 4.49 µM. It also gave a viability, T/C [1] of 71.5%, a viability, T/C [2] of 109% and a viability, T/C [3] of 88.3%. For the same compound, the viability, T/C [4] was 61.2%, the viability, T/C [5] was 49.8% and the viability, T/C [6] was 33.7%. The viability, T/C [7] was 94.9%, the viability, T/C [8] was 86.5% and the viability, T/C [9] was 83.7%. For the same compound, the viability, T/C [10] was 68.2%, the viability, T/C [11] was 68.7% and the viability, T/C [12] was 25.8%. It also gave a viability, T/C [13] of 105%, a viability, T/C [14] of 98.4% and a viability, T/C [15] of 85.7%. The viability, T/C [16] was 90.1%, the viability, T/C [17] was 50% and the viability, T/C [18] was 32.2%. It also gave a viability, T/C [19] of 88.3%, a viability, T/C [20] of 99.9% and a viability, T/C [21] of 81.4%. The viability, T/C [22] was 75.7%, the viability, T/C [23] was 61.2% and the viability, T/C [24] was 24.3%. For the same compound, the viability, T/C [25] was 114%, the viability, T/C [26] was 92.5% and the viability, T/C [27] was 75.2%. The viability, T/C [28] was 70.3%, the viability, T/C [29] was 63.2% and the viability, T/C [30] was 30.2%. For the same compound, the viability, T/C [31] was 90.5%, the viability, T/C [32] was 95.3% and the viability, T/C [33] was 68.8%. It also gave a viability, T/C [34] of 102%, a viability, T/C [35] of 60.7% and a viability, T/C [36] of 25.7%.
